EP0239461A1, “N-¬¬(hydroxy-2-phenyl)(phenyl)methylene amino-2 ethyl acetamide derivatives, process for their preparation and their therapeutical use” (SYNTHELABO, priority 1986, dated 1987)

Legend:
[1] = Acute toxicity, oral LD50 in the mouse; conditions: in vivo, read-out: DL50 (mg/kg) p.o.
Protocol: Leur toxicité aigüe est faible : la dose léthale à 50 % (LD50) déterminée chez la souris est supérieure à 1000 mg/kg par la voie orale pour la plupart d'entre eux.
(§1) Le tableau suivant donne les toxicités et les diminutions maximales d'ulcères obtenues aux doses indiquées, pour quelques composés de l'invention.

[2] = tested on: ulcère d'estomac induit par la phénylbutazone; test: Phenylbutazone-induced stomach ulcer in the rat; assay type: in vivo; conditions: po, maximal decrease of ulcers, 30 min before phenylbutazone 200 mg/kg p.o., female Wistar rats, scored 2 h later, read-out: Diminution ulcération (%); for inhibition in vivo at 30 mg/kg: dose 30 mg/kg p.o.; for inhibition in vivo at 100 mg/kg: dose 100 mg/kg p.o.
Protocol: Les composés de l'invention ont été testés quant à leur effet sur l'ulcère d'estomac induit par la phénylbutazone chez le rat.
Le test est effectué sur des rats Wistar femelles pesant 180-210 g à jeun depuis 20 heures, répartis en blocs randomisés.
Les ulcères sont provoqués par l'administration orale de phénylbutazone en solution mole à mole avec de la soude, à la dose de 200 mg/kg.
Les composés à étudier sont administrés par voie orale à raison de 10, 30 ou 100 mg/kg, 30 minutes avant l'ingestion de phénylbutazone, les animaux témoins ne recevant que le placébo.
Deux heures après l'administration de l'agent ulcérigène, les animaux sont sacrifiés par inhalation de chloroforme. Les estomacs sont prélevés et le degré d'ulcération est noté en aveugle de 0 à 3.
as §1

O=C(CN1CCC(O)CC1)NCCN=C(c1cc(Cl)ccc1O)c1ccccc1Cl [Composé n° 1, N-[[[(chloro-5 hydroxy-2 phényl)(chloro-2 phényl)méthylène]amino]-2 éthyl] (hydroxy-4 pipéridinyl-1)-2 acétamide] gave an LD50 [1] greater than 1000 mg/kg and an inhibition in vivo at 30 mg/kg [2] of 100%.
O=C(CN1CCC(O)CC1)NCCN=C(c1ccccc1)c1cc(Cl)ccc1O [Composé n° 2] showed an LD50 [1] greater than 1000 mg/kg and an inhibition in vivo at 100 mg/kg [2] of 100%.
For Cc1ccc(O)c(C(=NCCNC(=O)CN2CCC(O)CC2)c2ccccc2Cl)c1 [Composé n° 7, N-[[[(méthyl-5 hydroxy-2 phényl)(chloro-2 phényl)méthylène]amino]-2 éthyl] (hydroxy-4 pipéridinyl-1)-2 acétamide], the LD50 [1] was greater than 1000 mg/kg and the inhibition in vivo at 30 mg/kg [2] was 95%.
For Cc1cc(Cl)cc(C(=NCCNC(=O)CN2CCC(O)CC2)c2ccc(Cl)cc2)c1O [compound 3], the LD50 [1] was greater than 1000 mg/kg and the inhibition in vivo at 30 mg/kg [2] was 94%.
With Cc1ccc(C(=NCCNC(=O)CN2CCC(O)CC2)c2cc(Cl)ccc2O)cc1 [compound 4] the LD50 [1] was greater than 1000 mg/kg and the inhibition in vivo at 100 mg/kg [2] was 96%.
For O=C(CN1CCC(O)CC1)NCCN=C(c1ccc(Cl)c(Cl)c1)c1cc(Cl)ccc1O [compound 5], the LD50 [1] was greater than 1000 mg/kg and the inhibition in vivo at 30 mg/kg [2] was 92%.
With O=C(CN1CCC(O)CC1)NCCN=C(c1ccccc1Cl)c1cc(Cl)cc(Cl)c1O [compound 6] the LD50 [1] was greater than 1000 mg/kg and the inhibition in vivo at 30 mg/kg [2] was 100%.
Work on O=C(CN1CCC(O)CC1)NCCN=C(c1cc(Cl)ccc1O)c1ccc(Cl)cc1Cl [compound 8] yielded an LD50 [1] greater than 1000 mg/kg and an inhibition in vivo at 100 mg/kg [2] of 98%.
With Cc1ccccc1N1CCN(CC(=O)NCCN=C(c2cc(Cl)ccc2O)c2ccccc2Cl)CC1 [compound 19] the LD50 [1] was greater than 1000 mg/kg and the inhibition in vivo at 100 mg/kg [2] was 71%.
Molecule O=C(CN1CCNCC1)NCCN=C(c1cc(Cl)ccc1O)c1ccccc1Cl [compound 23] has an inhibition in vivo at 10 mg/kg ([2]; dose 10 mg/kg p.o.) of 87%.
Work on O=C(CN1CCC(O)CC1)NCCNC(c1cc(Cl)ccc1O)c1ccccc1Cl (stereo not shown) [compound 26] yielded an LD50 [1] greater than 1000 mg/kg and an inhibition in vivo at 30 mg/kg [2] of 97%.
Molecule Cc1ccccc1N1CCN(CC(=O)NCCNC(c2cc(Cl)ccc2O)c2ccccc2Cl)CC1 (stereo not shown) [compound 27] has an LD50 [1] greater than 1000 mg/kg and an inhibition in vivo at 30 mg/kg [2] of 98%.
Molecule O=C(CN1CCN(c2ccc(Cl)cc2)CC1)NCCNC(c1cc(Cl)ccc1O)c1ccccc1Cl (stereo not shown) [compound 29] has an LD50 [1] greater than 1000 mg/kg and an inhibition in vivo at 30 mg/kg [2] of 98%.
